Molecules are shown by their SMILES.

A short description of one data set: The drug is tested on Clostridium symbiosum strain: ATCC14940 for biotransformation. The drug concentrations were measured before and after a 12-h incubation by liquid-chromatography-coupled mass spectrometry (LC–MS). The settings on record: 2 µM.
Turning to `CN(C)CCOC(C)(c1ccccc1)c1ccccn1.O=C(O)CCC(=O)O` (stereo unspecified) [DOXYLAMINE SUCCINATE], the “Bacterial Biotransformation” value was “Compound NOT metabolized”.

On to `CC(=O)O[C@]1(C(C)=O)CC[C@H]2[C@@H]3C=C(Cl)C4=CC(=O)[C@@H]5C[C@@H]5[C@]4(C)[C@H]3CC[C@@]21C` [CYPROTERONE ACETATE], for which the “Bacterial Biotransformation” value is recorded as “Compound NOT metabolized”.

Another data set can be described thus: The drug is tested on Subdoligranulum variabile strain: DSM15176 for biotransformation. The drug concentrations were measured before and after a 12-h incubation by liquid-chromatography-coupled mass spectrometry (LC–MS). The settings on record: 2 µM.
`CN(C)CCOC(C)(c1ccccc1)c1ccccn1.O=C(O)CCC(=O)O` (stereo unspecified) [DOXYLAMINE SUCCINATE]: the “Bacterial Biotransformation” value is “Compound NOT metabolized”.

Regarding `CC(=O)O[C@]1(C(C)=O)CC[C@H]2[C@@H]3C=C(Cl)C4=CC(=O)[C@@H]5C[C@@H]5[C@]4(C)[C@H]3CC[C@@]21C` [CYPROTERONE ACETATE], the “Bacterial Biotransformation” value was “Compound NOT metabolized”.

A further data set is described as follows: The drug is tested on Alistipes indistinctus strain: DSM22520 for biotransformation. The drug concentrations were measured before and after a 12-h incubation by liquid-chromatography-coupled mass spectrometry (LC–MS). To be noted: 2 µM.
Take `CN(C)CCOC(C)(c1ccccc1)c1ccccn1.O=C(O)CCC(=O)O` (stereo unspecified) [DOXYLAMINE SUCCINATE]: the “Bacterial Biotransformation” value was “Compound NOT metabolized”.

Regarding `CC(=O)O[C@]1(C(C)=O)CC[C@H]2[C@@H]3C=C(Cl)C4=CC(=O)[C@@H]5C[C@@H]5[C@]4(C)[C@H]3CC[C@@]21C` [CYPROTERONE ACETATE], the “Bacterial Biotransformation” value was “Compound NOT metabolized”.

The nature of a further data set: The drug is tested on Bacteroides pectinophilus strain: ATCC43243 for biotransformation. The drug concentrations were measured before and after a 12-h incubation by liquid-chromatography-coupled mass spectrometry (LC–MS). The settings on record: 2 µM.
On to `CN(C)CCOC(C)(c1ccccc1)c1ccccn1.O=C(O)CCC(=O)O` (stereo unspecified) [DOXYLAMINE SUCCINATE], for which the “Bacterial Biotransformation” value is “Compound NOT metabolized”.

As to `CC(=O)O[C@]1(C(C)=O)CC[C@H]2[C@@H]3C=C(Cl)C4=CC(=O)[C@@H]5C[C@@H]5[C@]4(C)[C@H]3CC[C@@]21C` [CYPROTERONE ACETATE], the “Bacterial Biotransformation” value is listed as “Compound metabolized”.

A further data set is described as follows: The drug is tested on Clostridium asparagiforme strain: DSM15981 for biotransformation. The drug concentrations were measured before and after a 12-h incubation by liquid-chromatography-coupled mass spectrometry (LC–MS). It is filed as ADME. Further details: dose 2 uM, timepoint 0 vs 12 hours. The settings on record: enterocloster asparagiformis, 2 µM.
In the case of `CN(C)CCOC(C)(c1ccccc1)c1ccccn1.O=C(O)CCC(=O)O` (stereo unspecified) [DOXYLAMINE SUCCINATE], the “Bacterial Biotransformation” value is “Compound NOT metabolized”.

As to `CC(=O)O[C@]1(C(C)=O)CC[C@H]2[C@@H]3C=C(Cl)C4=CC(=O)[C@@H]5C[C@@H]5[C@]4(C)[C@H]3CC[C@@]21C` [CYPROTERONE ACETATE], the “Bacterial Biotransformation” value is on record as “Compound NOT metabolized”.

The next data set can be described thus: The drug is tested on Edwardsiella tarda strain: ATCC23685 for biotransformation. The drug concentrations were measured before and after a 12-h incubation by liquid-chromatography-coupled mass spectrometry (LC–MS). To be noted: 2 µM.
Take `CN(C)CCOC(C)(c1ccccc1)c1ccccn1.O=C(O)CCC(=O)O` (stereo unspecified) [DOXYLAMINE SUCCINATE]: the “Bacterial Biotransformation” value is “Compound NOT metabolized”.

With `CC(=O)O[C@]1(C(C)=O)CC[C@H]2[C@@H]3C=C(Cl)C4=CC(=O)[C@@H]5C[C@@H]5[C@]4(C)[C@H]3CC[C@@]21C` [CYPROTERONE ACETATE], the “Bacterial Biotransformation” value is “Compound NOT metabolized”.

The conditions of the next data set: enterocloster bolteae, 12 h, 2 µM.
Description: The drug is tested on Clostridium bolteae strain: ATCCBAA-613 for biotransformation. The drug concentrations were measured before and after a 12-h incubation by liquid-chromatography-coupled mass spectrometry (LC–MS)
Turning to `CN(C)CCOC(C)(c1ccccc1)c1ccccn1.O=C(O)CCC(=O)O` (stereo unspecified) [DOXYLAMINE SUCCINATE], the “Bacterial Biotransformation” value was “Compound NOT metabolized”.

With `CC(=O)O[C@]1(C(C)=O)CC[C@H]2[C@@H]3C=C(Cl)C4=CC(=O)[C@@H]5C[C@@H]5[C@]4(C)[C@H]3CC[C@@]21C` [CYPROTERONE ACETATE], the “Bacterial Biotransformation” value is listed as “Compound NOT metabolized”.

The nature of a further data set: The drug is tested on Bacteroides coprophilus strain: DSM18228 for biotransformation. The drug concentrations were measured before and after a 12-h incubation by liquid-chromatography-coupled mass spectrometry (LC–MS). The settings on record: 2 µM.
As for `CN(C)CCOC(C)(c1ccccc1)c1ccccn1.O=C(O)CCC(=O)O` (stereo unspecified) [DOXYLAMINE SUCCINATE], the “Bacterial Biotransformation” value is reported as “Compound NOT metabolized”.

With `CC(=O)O[C@]1(C(C)=O)CC[C@H]2[C@@H]3C=C(Cl)C4=CC(=O)[C@@H]5C[C@@H]5[C@]4(C)[C@H]3CC[C@@]21C` [CYPROTERONE ACETATE], the “Bacterial Biotransformation” value is listed as “Compound metabolized”.

Another data set in a line: The drug is tested on Parabacteroides merdae strain: ATCC43184 for biotransformation. The drug concentrations were measured before and after a 12-h incubation by liquid-chromatography-coupled mass spectrometry (LC–MS). The settings on record: 2 µM.
For the compound `CN(C)CCOC(C)(c1ccccc1)c1ccccn1.O=C(O)CCC(=O)O` (stereo unspecified) [DOXYLAMINE SUCCINATE], the “Bacterial Biotransformation” value is given as “Compound NOT metabolized”.

For `CC(=O)O[C@]1(C(C)=O)CC[C@H]2[C@@H]3C=C(Cl)C4=CC(=O)[C@@H]5C[C@@H]5[C@]4(C)[C@H]3CC[C@@]21C` [CYPROTERONE ACETATE], the “Bacterial Biotransformation” value is reported as “Compound NOT metabolized”.

The nature of another data set: The drug is tested on Ruminococcus torques strain: ATCC27756 for biotransformation. The drug concentrations were measured before and after a 12-h incubation by liquid-chromatography-coupled mass spectrometry (LC–MS). The class given is ADME. Further details: dose 2 uM, timepoint 0 vs 12 hours. The settings on record: 2 µM.
Turning to `CN(C)CCOC(C)(c1ccccc1)c1ccccn1.O=C(O)CCC(=O)O` (stereo unspecified) [DOXYLAMINE SUCCINATE], the “Bacterial Biotransformation” value is given as “Compound NOT metabolized”.

Take `CC(=O)O[C@]1(C(C)=O)CC[C@H]2[C@@H]3C=C(Cl)C4=CC(=O)[C@@H]5C[C@@H]5[C@]4(C)[C@H]3CC[C@@]21C` [CYPROTERONE ACETATE]: the “Bacterial Biotransformation” value is “Compound NOT metabolized”.

For a further data set the following is noted: bacteroides stercoris, 12 h, 2 µM.
Description: The drug is tested on Bacteroides stercoris strain: ATCC43183 for biotransformation. The drug concentrations were measured before and after a 12-h incubation by liquid-chromatography-coupled mass spectrometry (LC–MS)
`CN(C)CCOC(C)(c1ccccc1)c1ccccn1.O=C(O)CCC(=O)O` (stereo unspecified) [DOXYLAMINE SUCCINATE]: the “Bacterial Biotransformation” value is on record as “Compound NOT metabolized”.

In the case of `CC(=O)O[C@]1(C(C)=O)CC[C@H]2[C@@H]3C=C(Cl)C4=CC(=O)[C@@H]5C[C@@H]5[C@]4(C)[C@H]3CC[C@@]21C` [CYPROTERONE ACETATE], the “Bacterial Biotransformation” value is given as “Compound metabolized”.

The nature of another data set: The drug is tested on Bacteroides ovatus strain: ATCC8483 for biotransformation. The drug concentrations were measured before and after a 12-h incubation by liquid-chromatography-coupled mass spectrometry (LC–MS). To be noted: 2 µM.
Consider `CN(C)CCOC(C)(c1ccccc1)c1ccccn1.O=C(O)CCC(=O)O` (stereo unspecified) [DOXYLAMINE SUCCINATE], for which the “Bacterial Biotransformation” value is “Compound NOT metabolized”.

For the compound `CC(=O)O[C@]1(C(C)=O)CC[C@H]2[C@@H]3C=C(Cl)C4=CC(=O)[C@@H]5C[C@@H]5[C@]4(C)[C@H]3CC[C@@]21C` [CYPROTERONE ACETATE], the “Bacterial Biotransformation” value is listed as “Compound metabolized”.

The next data set can be described thus: The drug is tested on Bacteroides fragilis strain: ATCC43859 for biotransformation. The drug concentrations were measured before and after a 12-h incubation by liquid-chromatography-coupled mass spectrometry (LC–MS). To be noted: 2 µM.
Take `CN(C)CCOC(C)(c1ccccc1)c1ccccn1.O=C(O)CCC(=O)O` (stereo unspecified) [DOXYLAMINE SUCCINATE]: the “Bacterial Biotransformation” value is on record as “Compound NOT metabolized”.

Consider `CC(=O)O[C@]1(C(C)=O)CC[C@H]2[C@@H]3C=C(Cl)C4=CC(=O)[C@@H]5C[C@@H]5[C@]4(C)[C@H]3CC[C@@]21C` [CYPROTERONE ACETATE], for which the “Bacterial Biotransformation” value is “Compound metabolized”.

The next data set can be described thus: The drug is tested on Bacteroides fragilis strain: HMW610 for biotransformation. The drug concentrations were measured before and after a 12-h incubation by liquid-chromatography-coupled mass spectrometry (LC–MS). The settings on record: 2 µM.
As for `CN(C)CCOC(C)(c1ccccc1)c1ccccn1.O=C(O)CCC(=O)O` (stereo unspecified) [DOXYLAMINE SUCCINATE], the “Bacterial Biotransformation” value is “Compound NOT metabolized”.

`CC(=O)O[C@]1(C(C)=O)CC[C@H]2[C@@H]3C=C(Cl)C4=CC(=O)[C@@H]5C[C@@H]5[C@]4(C)[C@H]3CC[C@@]21C` [CYPROTERONE ACETATE]: the “Bacterial Biotransformation” value is reported as “Compound metabolized”.

The nature of the next data set: The drug is tested on Dorea formicigenerans strain: ATCC27755 for biotransformation. The drug concentrations were measured before and after a 12-h incubation by liquid-chromatography-coupled mass spectrometry (LC–MS). To be noted: 2 µM.
As to `CN(C)CCOC(C)(c1ccccc1)c1ccccn1.O=C(O)CCC(=O)O` (stereo unspecified) [DOXYLAMINE SUCCINATE], the “Bacterial Biotransformation” value is listed as “Compound NOT metabolized”.

On to `CC(=O)O[C@]1(C(C)=O)CC[C@H]2[C@@H]3C=C(Cl)C4=CC(=O)[C@@H]5C[C@@H]5[C@]4(C)[C@H]3CC[C@@]21C` [CYPROTERONE ACETATE], for which the “Bacterial Biotransformation” value is on record as “Compound NOT metabolized”.

Another data set in a line: The drug is tested on Collinsella intestinalis strain: DSM13280 for biotransformation. The drug concentrations were measured before and after a 12-h incubation by liquid-chromatography-coupled mass spectrometry (LC–MS). To be noted: 2 µM.
With `CN(C)CCOC(C)(c1ccccc1)c1ccccn1.O=C(O)CCC(=O)O` (stereo unspecified) [DOXYLAMINE SUCCINATE], the “Bacterial Biotransformation” value is “Compound NOT metabolized”.

With `CC(=O)O[C@]1(C(C)=O)CC[C@H]2[C@@H]3C=C(Cl)C4=CC(=O)[C@@H]5C[C@@H]5[C@]4(C)[C@H]3CC[C@@]21C` [CYPROTERONE ACETATE], the “Bacterial Biotransformation” value is reported as “Compound NOT metabolized”.

A short description of the next data set: The drug is tested on Coprococcus comes strain: ATCC27758 for biotransformation. The drug concentrations were measured before and after a 12-h incubation by liquid-chromatography-coupled mass spectrometry (LC–MS). The class given is ADME. More on the design: dose 2 uM, timepoint 0 vs 12 hours. The settings on record: 2 µM.
On to `CN(C)CCOC(C)(c1ccccc1)c1ccccn1.O=C(O)CCC(=O)O` (stereo unspecified) [DOXYLAMINE SUCCINATE], for which the “Bacterial Biotransformation” value is given as “Compound NOT metabolized”.

For the compound `CC(=O)O[C@]1(C(C)=O)CC[C@H]2[C@@H]3C=C(Cl)C4=CC(=O)[C@@H]5C[C@@H]5[C@]4(C)[C@H]3CC[C@@]21C` [CYPROTERONE ACETATE], the “Bacterial Biotransformation” value is “Compound NOT metabolized”.

Another data set can be described thus: The drug is tested on Blautia luti strain: DSM14534 for biotransformation. The drug concentrations were measured before and after a 12-h incubation by liquid-chromatography-coupled mass spectrometry (LC–MS). The class given is ADME. More on the design: dose 2 uM, timepoint 0 vs 12 hours. The settings on record: 2 µM.
Turning to `CN(C)CCOC(C)(c1ccccc1)c1ccccn1.O=C(O)CCC(=O)O` (stereo unspecified) [DOXYLAMINE SUCCINATE], the “Bacterial Biotransformation” value was “Compound NOT metabolized”.

`CC(=O)O[C@]1(C(C)=O)CC[C@H]2[C@@H]3C=C(Cl)C4=CC(=O)[C@@H]5C[C@@H]5[C@]4(C)[C@H]3CC[C@@]21C` [CYPROTERONE ACETATE]: the “Bacterial Biotransformation” value was “Compound NOT metabolized”.

The values above are taken from ChEMBL document CHEMBL5303573, “Mapping human microbiome drug metabolism by gut bacteria and their genes” (Nature, 2019).
